What was measured:
[1] = species: Rattus norvegicus; assay: Selectivity ratio of alpha1/alpha2d
[2] = biological target: T1, Alpha-2B adrenergic receptor (Homo sapiens, UniProt P18089); assay: Tested for Binding affinity towards alpha-2B adrenergic receptor
T1 sequence (P18089 whole entry): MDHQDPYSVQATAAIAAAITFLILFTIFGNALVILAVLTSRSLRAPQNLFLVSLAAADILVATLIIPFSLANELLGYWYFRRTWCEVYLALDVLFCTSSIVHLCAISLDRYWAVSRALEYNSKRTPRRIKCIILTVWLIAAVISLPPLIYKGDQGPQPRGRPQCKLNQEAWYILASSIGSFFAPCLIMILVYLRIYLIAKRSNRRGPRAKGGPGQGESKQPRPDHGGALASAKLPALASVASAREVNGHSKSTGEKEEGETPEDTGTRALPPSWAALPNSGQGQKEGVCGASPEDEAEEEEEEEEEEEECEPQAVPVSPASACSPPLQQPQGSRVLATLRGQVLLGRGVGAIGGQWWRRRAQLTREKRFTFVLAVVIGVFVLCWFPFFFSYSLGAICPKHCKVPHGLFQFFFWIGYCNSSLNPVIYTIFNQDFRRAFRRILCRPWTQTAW

[3] = biological target: T2, Alpha-2A adrenergic receptor (Homo sapiens, UniProt P08913); assay: Binding affinity towards Alpha-2A adrenergic receptor
T2 sequence (P08913 whole entry): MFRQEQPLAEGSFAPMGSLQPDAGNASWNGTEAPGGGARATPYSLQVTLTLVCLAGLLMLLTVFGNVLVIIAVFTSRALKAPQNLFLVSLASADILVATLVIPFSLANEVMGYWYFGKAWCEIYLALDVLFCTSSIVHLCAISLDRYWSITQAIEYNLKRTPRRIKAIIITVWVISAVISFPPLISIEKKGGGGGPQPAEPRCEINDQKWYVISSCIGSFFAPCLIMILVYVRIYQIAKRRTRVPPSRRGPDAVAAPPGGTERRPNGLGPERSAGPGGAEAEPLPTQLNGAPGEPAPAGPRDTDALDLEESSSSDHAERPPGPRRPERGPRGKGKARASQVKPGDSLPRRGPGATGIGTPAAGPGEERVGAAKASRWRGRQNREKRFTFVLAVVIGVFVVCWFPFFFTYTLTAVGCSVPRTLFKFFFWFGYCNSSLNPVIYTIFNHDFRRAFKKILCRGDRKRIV

[4] = biological target: T1, Alpha-2B adrenergic receptor; assay: Binding affinity towards Alpha-2B adrenergic receptor
[5] = biological target: T3, Alpha-2C adrenergic receptor (Homo sapiens, UniProt P18825); assay: Binding affinity towards alpha-2C adrenergic receptor
T3 sequence (P18825 whole entry): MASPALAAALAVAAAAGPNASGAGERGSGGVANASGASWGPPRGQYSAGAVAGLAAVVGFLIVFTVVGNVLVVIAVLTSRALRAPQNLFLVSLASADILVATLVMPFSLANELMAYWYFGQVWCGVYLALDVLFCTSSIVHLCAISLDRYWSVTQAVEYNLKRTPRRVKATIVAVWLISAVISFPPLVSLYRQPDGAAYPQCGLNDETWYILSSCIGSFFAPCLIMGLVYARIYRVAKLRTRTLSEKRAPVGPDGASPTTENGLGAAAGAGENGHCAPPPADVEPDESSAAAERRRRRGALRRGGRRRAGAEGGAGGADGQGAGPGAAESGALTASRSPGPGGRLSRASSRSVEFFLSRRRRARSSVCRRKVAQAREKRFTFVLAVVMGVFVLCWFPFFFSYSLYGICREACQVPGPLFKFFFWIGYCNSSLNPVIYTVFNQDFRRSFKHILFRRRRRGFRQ

[6] = biological target: T4, Alpha-2A adrenergic receptor (Homo sapiens) (UniProt P08913); assay: Tested for Binding affinity towards Alpha-2A adrenergic receptor at 1 uM
T4 sequence (whole entry): T2 sequence (P08913 whole entry)

[7] = biological target: T5, Alpha-2C adrenergic receptor (Homo sapiens) (UniProt P18825); assay: Tested for Binding affinity towards alpha-2C adrenergic receptor in rat cells at 1 uM; format: cell-based
T5 sequence (whole entry): T3 sequence (P18825 whole entry)

[8] = biological target: T6, Alpha-2A adrenergic receptor (Rattus norvegicus, UniProt P22909); assay: Binding affinity towards alpha-2D adrenergic receptor
T6 sequence (P22909 whole entry): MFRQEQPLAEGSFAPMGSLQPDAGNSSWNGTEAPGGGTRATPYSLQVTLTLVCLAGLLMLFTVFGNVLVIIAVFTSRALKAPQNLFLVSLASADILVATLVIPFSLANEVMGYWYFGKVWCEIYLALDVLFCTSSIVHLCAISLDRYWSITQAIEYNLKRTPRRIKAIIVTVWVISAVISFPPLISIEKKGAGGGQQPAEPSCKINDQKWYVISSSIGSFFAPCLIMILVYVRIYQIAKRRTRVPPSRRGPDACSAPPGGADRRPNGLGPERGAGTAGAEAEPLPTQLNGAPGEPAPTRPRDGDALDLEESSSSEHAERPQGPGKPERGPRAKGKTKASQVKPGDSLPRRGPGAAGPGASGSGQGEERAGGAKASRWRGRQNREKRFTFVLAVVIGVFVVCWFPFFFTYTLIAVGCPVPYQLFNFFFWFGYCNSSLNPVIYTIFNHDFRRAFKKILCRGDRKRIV

[9] = biological target: T7, Adrenergic receptor alpha-1 (Rattus norvegicus, UniProt P15823+P23944+P43140); assay: Tested for Binding affinity towards alpha-1 adrenergic receptor; format: protein assay
T7 sequence (P15823 whole entry): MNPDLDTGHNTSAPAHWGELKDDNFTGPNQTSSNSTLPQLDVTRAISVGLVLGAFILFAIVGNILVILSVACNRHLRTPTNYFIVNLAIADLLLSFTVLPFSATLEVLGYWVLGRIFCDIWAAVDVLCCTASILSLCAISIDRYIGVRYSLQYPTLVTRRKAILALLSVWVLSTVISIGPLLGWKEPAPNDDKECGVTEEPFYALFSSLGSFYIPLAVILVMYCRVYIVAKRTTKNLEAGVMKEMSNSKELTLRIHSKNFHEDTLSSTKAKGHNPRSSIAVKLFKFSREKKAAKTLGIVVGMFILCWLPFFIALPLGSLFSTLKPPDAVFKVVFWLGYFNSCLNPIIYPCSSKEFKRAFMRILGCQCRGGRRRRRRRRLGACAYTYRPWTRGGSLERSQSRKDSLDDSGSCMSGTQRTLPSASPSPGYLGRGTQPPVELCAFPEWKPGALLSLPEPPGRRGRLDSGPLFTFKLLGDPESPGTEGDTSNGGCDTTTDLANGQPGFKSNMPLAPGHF
T7 sequence (P23944 whole entry): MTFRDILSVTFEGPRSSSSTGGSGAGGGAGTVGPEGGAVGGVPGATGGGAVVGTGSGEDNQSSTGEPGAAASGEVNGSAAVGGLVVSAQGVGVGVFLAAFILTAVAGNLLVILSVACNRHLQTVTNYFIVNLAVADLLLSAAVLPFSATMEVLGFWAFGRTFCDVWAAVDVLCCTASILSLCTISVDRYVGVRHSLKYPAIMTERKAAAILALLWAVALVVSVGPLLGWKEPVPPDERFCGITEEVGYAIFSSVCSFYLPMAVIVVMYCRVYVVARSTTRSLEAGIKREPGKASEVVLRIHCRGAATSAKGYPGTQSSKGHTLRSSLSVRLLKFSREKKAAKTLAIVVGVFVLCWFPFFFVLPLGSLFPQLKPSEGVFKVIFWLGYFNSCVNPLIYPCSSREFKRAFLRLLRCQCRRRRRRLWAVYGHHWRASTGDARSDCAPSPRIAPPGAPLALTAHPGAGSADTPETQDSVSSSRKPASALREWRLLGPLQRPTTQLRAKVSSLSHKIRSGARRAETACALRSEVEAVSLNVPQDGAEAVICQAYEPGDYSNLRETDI
T7 sequence (P43140 whole entry): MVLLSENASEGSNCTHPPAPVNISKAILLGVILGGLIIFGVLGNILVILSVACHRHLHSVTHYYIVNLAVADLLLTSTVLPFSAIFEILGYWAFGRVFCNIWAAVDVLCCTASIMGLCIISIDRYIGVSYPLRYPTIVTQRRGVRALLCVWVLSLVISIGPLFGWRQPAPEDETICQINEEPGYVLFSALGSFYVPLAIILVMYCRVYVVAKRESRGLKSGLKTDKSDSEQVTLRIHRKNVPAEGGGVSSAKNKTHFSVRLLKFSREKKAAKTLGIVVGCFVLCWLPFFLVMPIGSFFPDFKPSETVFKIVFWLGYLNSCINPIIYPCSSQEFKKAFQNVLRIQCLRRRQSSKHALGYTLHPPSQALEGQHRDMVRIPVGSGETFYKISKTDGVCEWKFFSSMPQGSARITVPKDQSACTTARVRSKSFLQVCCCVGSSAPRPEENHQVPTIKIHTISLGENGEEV

| SMILES | Ratio [1] | Ki [3] [nM] | Ki [4] [nM] | also measured |
| --- | --- | --- | --- | --- |
| Cc1sc(C)c2c1CCC=C2c1c[nH]cn1 | 11600 |  |  |  |
| C1=C(c2cnc[nH]2)c2sccc2CC1 |  | 224 |  | Ki [2]: 940 nM |
| Cc1sc(C)c2c1CCCC2c1c[nH]cn1 (stereo not drawn) | 17 | 68 | 141 | Ki [5]: 205 nM |
| c1cc(-c2c[nH]cn2)c2ccsc2c1 | 132 | 277 | 663 |  |
| c1nc(C2CCCc3ccsc32)c[nH]1 (stereo not drawn) | 260 |  |  | inhibition [6]: 87%; inhibition [7]: 54% |
| Cc1cccc([C@H](C)c2cnc[nH]2)c1C [DEXMEDETOMIDINE] |  |  |  | Ki [8]: 0.015 nM |
| Cc1sc(C)c2c1CCC=C2c1cnc[nH]1 |  | 25 | 100 | Ki [8]: 8.6 nM; Ki [5]: 26 nM |
| c1nc(C2CCCc3sccc32)c[nH]1 (stereo not drawn) | 196 | 27 | 99 | Ki [5]: 172 nM |
| C1=C(c2c[nH]cn2)c2sccc2CC1 | 133 |  |  |  |
| Cc1cccc([C@H](C)c2c[nH]cn2)c1C [DEXMEDETOMIDINE] | 333 |  |  | Ki [9]: 5 nM |
| C1=C(c2c[nH]cn2)c2ccsc2CC1 | 295 | 254 | 621 |  |
